According to US20070009377A1, “Methods for Reducing Pathogens in Biological Samples” (priority 2005, published 2007):

What was measured:
[1] = test system: apheresis platelet concentrates; test: In vitro cell quality tests of stored platelets after riboflavin + UV light treatment (clinical study one); type: cell-based, human
Experimental: The platelet concentrate with a volume of 250 mL was transferred into a 3-litre polyolefin bag (Sengewald, Rohrdorf, Germany), followed by addition of 27 mL sterile 500 μM riboflavin so that the final concentration in the product was ca. 50 μM. The platelet products were then exposed to UV light (phosphor 265-370 nm) at either a medium dose level (7.2 J/ml) or high dose level (12.4 J/ml). Total illumination time varied from approximately 5-10 minutes with agitation at a temperature of 25-30° C. After treatment, platelet products were transferred into a citrated polyvinyl chloride ELP™ bag (Gambro BCT, Lakewood, Colo.). The treated and control PCs were stored for an additional 5 days at 20-24° C. under standard blood bank conditions. Control platelet products were prepared in the same manner as the treated counterparts except no riboflavin was added and no UV light treatment was performed.
Platelet samples were taken for lab tests at day 0, 3 and 5 of platelet storage using aseptic technique and analysis was completed within 2 hours. The in vitro cell quality tests for platelet count, swirl score, pH, pO2, pCO2, lactate and glucose were performed per standard operating procedures (SOPs) of the trial site. Hypotonic shock response (HSR) and P-selectin expression were measured as described by Ruane et al. (Ruane P H, Edrich R, Gampp D et al. Photochemical inactivation of selected viruses and bacteria in platelet concentrates using riboflavin and light. Transfusion 2004;44:877-85.)
Following Ethical Committee approval and notification of the MCC, the competent authority of South Africa, a total of 18 platelet products were collected with yields ranging from 2.9 to 3.8×10^11 platelets using standard Trima apheresis procedures. Products were treated in a polyolefin container, Sengewald bag, with UV light at either a medium UV dose (7.2 J/ml; N=5) or a high UV dose (12.4 J/ml; N=6) in the presence of 50 μM riboflavin on the day of collection. An additional seven products served as controls which were not treated with UV light. All treated and control PC products were transferred to and stored in ELP™ bags under normal blood bank conditions for 5 days post-apheresis collection. At day 0 (pre-treatment), day 3 and day 5 of storage, the samples from all PC products were measured for pH, pO2, pCO2, lactate and glucose concentrations, P-selectin, HSR and platelet swirl. […] UV treatment also accelerated an increase in P-selectin expression and decreases in HSR and swirl score during platelet storage. It appears that the severity of these changes during platelet storage were in direct proportion to the levels of UV dose applied.

[2] = test system: platelets; test: In vivo radiolabeled platelet recovery after infusion into the autologous donor (clinical study one); design: species or system human; conditions: after 5-day storage
Experimental: At the end of the 5-day storage period, a small aliquot of the platelets was radiolabeled with ^111Indium, according to the study site's SOP (in agreement with local and international standards for radiolabeling of human platelets). The labeling procedure was performed after formation of ^111In-tropolonate through mixing of ^111Indium chloride (Amersham) with tropolone. If the pH of the platelet samples to be labeled was>6.5, it was brought down to 6.5 to prevent irreversible aggregation of platelets during pelleting.
After washing and resuspension in plasma, a radiolabeled aliquot was infused into the autologous donor. The total radioactivity that was given to a subject in this study was less than 8 MBq. Blood samples for radioactivity counting were collected 15 minutes, 1 hour and 2-3 hours after infusion, twice (AM and PM) on day 1 post-infusion and once on days 2-6 post-infusion. After correcting for 2-hour radioelution as described by Holme, et al., (Holme S, Heaton A, Roodt J. Concurrent label method with 111In and 51Cr allows accurate evaluation of platelet viability of stored platelet concentrates. Br J Haematol 1993;84:717-23.) in vivo radiolabeled platelet recovery and survival values were calculated by the COST computer program using the multiple-hit model. […]

pO2 ([1]; 50 μM riboflavin + high UV dose (12.4 J/ml), Day 0 (pre-treatment)): 95 +/− 19 mmHg
pO2 ([1]; 50 μM riboflavin + high UV dose (12.4 J/ml), Day 3): 83 +/− 22 mmHg
pO2 ([1]; 50 μM riboflavin + high UV dose (12.4 J/ml), Day 5): 88 +/− 30 mmHg
pO2 ([1]; 50 μM riboflavin + medium UV dose (7.2 J/ml), Day 0 (pre-treatment)): 60 +/− 15 mmHg
pO2 ([1]; 50 μM riboflavin + medium UV dose (7.2 J/ml), Day 3): 82 +/− 24 mmHg
pO2 ([1]; 50 μM riboflavin + medium UV dose (7.2 J/ml), Day 5): 68 +/− 17 mmHg
SMILES: Cc1cc2nc3c(=O)[nH]c(=O)nc-3n(C[C@H](O)[C@H](O)[C@H](O)CO)c2cc1C [riboflavin, 7,8-dimethyl-10-ribityl isoalloxazine]
average in vivo recovery of infused platelets ([2]; 50 μM riboflavin + high dose of UV light (12.4 J/ml)): 14%
average in vivo recovery of infused platelets ([2]; 50 μM riboflavin + medium dose of UV light (7.2 J/ml)): 30%
